Reference: patent US20260234129A1, “NOVEL IMIDAZOLE DERIVATIVE AND USE THEREOF” (PELEMED CO., LTD., priority 2023, published 2026)

What was measured:
Experiment in all cases: scanMax kinase panel (Eurofins)
Type in all cases: binding
[1] = target: T1, ERK1 (Homo sapiens, UniProt P27361); conditions: ERK1, 1 μM; read-out: % control
T1 construct: purchased Eurofins scanMax® kinase panel
Protocol: (§1) The following assay method was performed to evaluate the inhibitory activities of a compound according to the present invention with respect to various enzymes. […] The compound was applied to the enzyme at a concentration of 1 μM, dissolved in DMSO, and the % control was determined according to Equation 1 below.
(§2) Here, the positive control refers to a compound corresponding to 0% control, and the negative control refers to a compound corresponding to 100% control.

[2] = target: T2, ABL1(H396P)-phosphorylated (Homo sapiens, UniProt P00519, H396P); conditions: read-out: % control
T2 construct: purchased Eurofins
Protocol: as §1, §2

[3] = target: T3, RET(V804M) (Homo sapiens, UniProt P07949, V804M); conditions: read-out: % control
T3 construct: purchased Eurofins scanMax kinase panel
Protocol: as §1, §2

[4] = target: T4, TRKC (Homo sapiens, UniProt Q16288); conditions: read-out: % control
T4 construct: purchased Eurofins scanMax kinase panel
Protocol: as §1, §2

[5] = target: T5, RET(V804L) (Homo sapiens, UniProt P07949, V804L); conditions: read-out: % control
T5 construct: purchased Eurofins scanMax kinase panel
Protocol: as §1, §2

[6] = target: T6, IRAKI (Homo sapiens, UniProt P51617); conditions: read-out: % control
T6 construct: purchased Eurofins
Protocol: as §1, §2

[7] = target: T7, ERK3 (Homo sapiens, UniProt Q16659); conditions: ERK3, 1 μM; read-out: % control
T7 construct: purchased Eurofins scanMax® kinase panel
Protocol: as §1, §2

[8] = target: T8, MEK6 (Homo sapiens, UniProt P52564); conditions: MEK6, 1 μM; read-out: % control
T8 construct: purchased Eurofins scanMax kinase panel
Protocol: as §1, §2

[9] = target: T9, ABL1-phosphorylated (Homo sapiens, UniProt P00519); conditions: read-out: % control
T9 construct: purchased Eurofins
Protocol: as §1, §2

[10] = target: T10, ABL1(Q252H)-phosphorylated (Homo sapiens, UniProt P00519, Q252H); conditions: read-out: % control
T10 construct: purchased Eurofins
Protocol: as §1, §2

[11] = target: T11, MAP3K1 (Homo sapiens, UniProt Q13233); conditions: MAP3K1, 1 μM; read-out: % control
T11 construct: purchased Eurofins
Protocol: as §1, §2

[12] = target: T12, KIT(V559D, V654A) (Homo sapiens, UniProt P10721, V559D/V654A); conditions: read-out: % control
T12 construct: purchased Eurofins
Protocol: as §1, §2

[13] = target: T13, MEKI (Homo sapiens, UniProt Q02750); conditions: read-out: % control
T13 construct: purchased Eurofins
Protocol: as §1, §2

[14] = target: T14, PAKI (Homo sapiens, UniProt Q13153); conditions: read-out: % control
T14 construct: purchased Eurofins scanMax kinase panel
Protocol: as §1, §2

[15] = target: T15, KIT(D816V) (Homo sapiens, UniProt P10721, D816V); conditions: read-out: % control
T15 construct: purchased Eurofins
Protocol: as §1, §2

[16] = target: T16, HASPIN (Homo sapiens, UniProt Q8TF76); conditions: read-out: % control
T16 construct: purchased Eurofins scanMax® kinase panel
Protocol: as §1, §2

[17] = target: T17, KIT (Homo sapiens, UniProt P10721); conditions: read-out: % control
T17 construct: purchased Eurofins
Protocol: as §1, §2

[18] = target: T18, CDK4-cycllinDl (Homo sapiens, UniProt P11802); conditions: read-out: % control
T18 construct: purchased Eurofins
Protocol: as §1, §2

[19] = target: T19, KIT(V559D, T670I) (Homo sapiens, UniProt P10721, T670I/V559D); conditions: read-out: % control
T19 construct: purchased Eurofins
Protocol: as §1, §2

[20] = target: T20, ABL1(M351T)-phosphorylated (Homo sapiens, UniProt P00519, M351T); conditions: read-out: % control
T20 construct: purchased Eurofins
Protocol: as §1, §2

[21] = target: T21, JAK3(JH1domain-catalytic) (Homo sapiens, UniProt P52333); conditions: read-out: % control
T21 construct: JAK3(JH1domain-catalytic); purchased Eurofins
Protocol: as §1, §2

[22] = target: T22, CDK3 (Homo sapiens, UniProt Q00526); conditions: CDK3, 1 μM; read-out: % control
T22 construct: purchased Eurofins
Protocol: as §1, §2

[23] = target: T23, ERK4 (Homo sapiens, UniProt P31152); conditions: ERK4, 1 μM; read-out: % control
T23 construct: purchased Eurofins scanMax® kinase panel
Protocol: as §1, §2

[24] = target: T24, MEK4 (Homo sapiens, UniProt P45985); conditions: MEK4, 1 μM; read-out: % control
T24 construct: purchased Eurofins
Protocol: as §1, §2

[25] = target: T25, ROCK2 (Homo sapiens, UniProt O75116); conditions: ROCK2, 1 μM; read-out: % control
T25 construct: purchased Eurofins scanMax kinase panel
Protocol: as §1, §2

[26] = target: T26, PIM3 (Homo sapiens, UniProt Q86V86); conditions: PIM3, 1 μM; read-out: % control
T26 construct: purchased Eurofins scanMax kinase panel
Protocol: as §1, §2

[27] = target: T27, ERK8 (Homo sapiens, UniProt Q8TD08); conditions: ERK8, 1 μM; read-out: % control
T27 construct: purchased Eurofins scanMax® kinase panel
Protocol: as §1, §2

[28] = target: T28, DYRKIA (Homo sapiens, UniProt Q13627); conditions: read-out: % control
T28 construct: purchased Eurofins scanMax® kinase panel
Protocol: as §1, §2

[29] = target: T29, PAK2 (Homo sapiens, UniProt Q13177); conditions: PAK2, 1 μM; read-out: % control
T29 construct: purchased Eurofins scanMax kinase panel
Protocol: as §1, §2

[30] = target: T30, PAK6 (Homo sapiens, UniProt Q9NQU5); conditions: PAK6, 1 μM; read-out: % control
T30 construct: purchased Eurofins scanMax kinase panel
Protocol: as §1, §2

[31] = target: T31, GSK3B (Homo sapiens, UniProt P49841); conditions: read-out: % control
T31 construct: purchased Eurofins scanMax® kinase panel
Protocol: as §1, §2

[32] = target: T32, KIT(D816H) (Homo sapiens, UniProt P10721, D816H); conditions: read-out: % control
T32 construct: purchased Eurofins
Protocol: as §1, §2

[33] = target: T33, ABL1(F317L)-phosphorylated (Homo sapiens, UniProt P00519, F317L); conditions: read-out: % control
T33 construct: purchased Eurofins
Protocol: as §1, §2

[34] = target: T34, CDK2 (Homo sapiens, UniProt P24941); conditions: CDK2, 1 μM; read-out: % control
T34 construct: purchased Eurofins
Protocol: as §1, §2

Measured: remaining binding at 1 µM

T27 sequence (Q8TD08 whole entry): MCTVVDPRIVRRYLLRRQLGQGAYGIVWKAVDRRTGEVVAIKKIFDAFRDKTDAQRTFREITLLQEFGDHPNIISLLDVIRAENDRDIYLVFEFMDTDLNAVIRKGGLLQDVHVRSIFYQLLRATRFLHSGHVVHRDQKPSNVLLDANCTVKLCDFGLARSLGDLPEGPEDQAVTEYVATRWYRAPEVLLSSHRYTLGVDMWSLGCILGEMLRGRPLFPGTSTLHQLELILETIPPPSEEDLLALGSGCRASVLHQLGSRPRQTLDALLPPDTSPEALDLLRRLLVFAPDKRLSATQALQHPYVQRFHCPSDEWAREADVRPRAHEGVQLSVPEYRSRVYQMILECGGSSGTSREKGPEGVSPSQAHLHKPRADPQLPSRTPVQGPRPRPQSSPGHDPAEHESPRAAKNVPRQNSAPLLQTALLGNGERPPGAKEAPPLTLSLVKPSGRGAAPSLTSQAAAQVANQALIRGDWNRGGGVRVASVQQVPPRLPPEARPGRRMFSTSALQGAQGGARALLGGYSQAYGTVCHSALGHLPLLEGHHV
T16 sequence (Q8TF76 whole entry): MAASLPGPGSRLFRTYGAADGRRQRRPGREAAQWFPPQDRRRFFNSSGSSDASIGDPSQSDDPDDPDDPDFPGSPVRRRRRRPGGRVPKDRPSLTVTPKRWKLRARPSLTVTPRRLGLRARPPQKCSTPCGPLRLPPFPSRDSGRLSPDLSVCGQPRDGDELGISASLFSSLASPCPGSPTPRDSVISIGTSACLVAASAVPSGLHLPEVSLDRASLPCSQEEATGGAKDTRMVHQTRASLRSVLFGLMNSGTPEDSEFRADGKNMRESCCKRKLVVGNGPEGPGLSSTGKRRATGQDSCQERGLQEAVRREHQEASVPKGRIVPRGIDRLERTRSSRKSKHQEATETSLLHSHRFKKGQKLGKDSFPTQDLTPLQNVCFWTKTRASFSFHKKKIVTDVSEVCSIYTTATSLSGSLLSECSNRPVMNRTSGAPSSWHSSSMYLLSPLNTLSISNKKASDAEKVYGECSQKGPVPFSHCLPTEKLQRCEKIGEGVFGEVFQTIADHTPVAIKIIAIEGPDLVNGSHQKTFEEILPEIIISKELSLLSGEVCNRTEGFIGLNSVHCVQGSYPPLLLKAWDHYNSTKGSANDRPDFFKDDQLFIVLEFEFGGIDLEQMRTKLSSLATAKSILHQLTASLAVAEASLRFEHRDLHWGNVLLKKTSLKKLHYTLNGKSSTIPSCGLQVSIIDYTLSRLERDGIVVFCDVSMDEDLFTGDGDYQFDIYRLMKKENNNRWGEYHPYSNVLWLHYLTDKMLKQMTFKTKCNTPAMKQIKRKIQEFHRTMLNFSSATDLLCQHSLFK
T15 sequence (P10721 26-976 D816V): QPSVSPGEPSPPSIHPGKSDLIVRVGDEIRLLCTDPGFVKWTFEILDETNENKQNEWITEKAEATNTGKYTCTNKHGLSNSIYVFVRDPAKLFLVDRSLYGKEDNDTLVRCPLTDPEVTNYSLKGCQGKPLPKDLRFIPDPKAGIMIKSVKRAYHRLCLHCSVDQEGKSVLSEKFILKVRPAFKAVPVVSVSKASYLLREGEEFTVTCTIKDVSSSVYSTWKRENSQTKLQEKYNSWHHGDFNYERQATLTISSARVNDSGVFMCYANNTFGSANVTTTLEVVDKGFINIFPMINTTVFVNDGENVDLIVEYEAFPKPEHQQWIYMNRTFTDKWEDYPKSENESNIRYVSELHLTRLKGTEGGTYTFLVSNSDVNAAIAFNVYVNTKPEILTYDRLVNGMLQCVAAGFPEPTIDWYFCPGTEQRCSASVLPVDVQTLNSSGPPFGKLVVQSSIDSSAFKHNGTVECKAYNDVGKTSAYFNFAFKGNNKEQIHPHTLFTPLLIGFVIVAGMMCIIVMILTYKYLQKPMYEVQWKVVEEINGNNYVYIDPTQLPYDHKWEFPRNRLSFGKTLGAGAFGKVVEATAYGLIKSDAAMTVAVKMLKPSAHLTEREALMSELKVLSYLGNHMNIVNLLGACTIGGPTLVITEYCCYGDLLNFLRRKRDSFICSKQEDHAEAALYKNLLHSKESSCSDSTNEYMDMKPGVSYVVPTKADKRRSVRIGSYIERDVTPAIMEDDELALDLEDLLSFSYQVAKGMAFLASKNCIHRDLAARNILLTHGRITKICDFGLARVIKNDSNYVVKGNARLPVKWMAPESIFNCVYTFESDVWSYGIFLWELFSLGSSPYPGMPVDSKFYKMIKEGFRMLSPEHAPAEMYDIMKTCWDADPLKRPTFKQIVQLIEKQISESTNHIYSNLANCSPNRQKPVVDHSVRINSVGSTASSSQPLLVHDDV
T32 sequence (P10721 26-976 D816H): as the sequence (P10721 26-976 D816V) above, with V791H counted along it
T8 sequence (P52564 whole entry): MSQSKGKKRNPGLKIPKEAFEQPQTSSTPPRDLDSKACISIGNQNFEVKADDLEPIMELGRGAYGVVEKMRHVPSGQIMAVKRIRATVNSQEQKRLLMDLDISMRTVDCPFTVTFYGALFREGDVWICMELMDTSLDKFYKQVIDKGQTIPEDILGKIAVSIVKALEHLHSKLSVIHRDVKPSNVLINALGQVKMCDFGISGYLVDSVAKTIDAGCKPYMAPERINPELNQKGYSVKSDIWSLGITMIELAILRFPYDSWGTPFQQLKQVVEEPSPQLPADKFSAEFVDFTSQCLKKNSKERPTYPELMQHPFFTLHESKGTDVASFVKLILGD
T31 sequence (P49841 whole entry): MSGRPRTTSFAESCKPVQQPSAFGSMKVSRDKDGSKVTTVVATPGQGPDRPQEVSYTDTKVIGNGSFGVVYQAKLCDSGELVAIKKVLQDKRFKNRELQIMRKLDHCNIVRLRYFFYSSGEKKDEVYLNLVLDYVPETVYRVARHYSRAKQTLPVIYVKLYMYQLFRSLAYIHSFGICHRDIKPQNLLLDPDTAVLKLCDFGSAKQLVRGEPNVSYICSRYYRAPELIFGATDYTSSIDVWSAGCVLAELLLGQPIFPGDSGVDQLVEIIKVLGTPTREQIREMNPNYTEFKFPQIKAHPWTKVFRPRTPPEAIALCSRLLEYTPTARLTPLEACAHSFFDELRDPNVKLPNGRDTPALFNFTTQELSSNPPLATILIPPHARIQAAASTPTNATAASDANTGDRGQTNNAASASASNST
T13 sequence (Q02750 whole entry): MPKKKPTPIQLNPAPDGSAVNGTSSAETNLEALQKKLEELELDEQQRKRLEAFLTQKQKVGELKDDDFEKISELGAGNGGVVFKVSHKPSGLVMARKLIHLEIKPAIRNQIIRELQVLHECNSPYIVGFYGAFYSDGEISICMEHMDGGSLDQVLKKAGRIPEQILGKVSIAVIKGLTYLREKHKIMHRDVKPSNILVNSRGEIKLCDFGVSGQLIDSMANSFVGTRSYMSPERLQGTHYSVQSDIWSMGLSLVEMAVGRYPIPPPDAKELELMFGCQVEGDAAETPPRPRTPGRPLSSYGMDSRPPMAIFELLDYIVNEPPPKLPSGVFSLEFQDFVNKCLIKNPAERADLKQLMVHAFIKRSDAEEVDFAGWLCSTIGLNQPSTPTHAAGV
T22 sequence (Q00526 whole entry): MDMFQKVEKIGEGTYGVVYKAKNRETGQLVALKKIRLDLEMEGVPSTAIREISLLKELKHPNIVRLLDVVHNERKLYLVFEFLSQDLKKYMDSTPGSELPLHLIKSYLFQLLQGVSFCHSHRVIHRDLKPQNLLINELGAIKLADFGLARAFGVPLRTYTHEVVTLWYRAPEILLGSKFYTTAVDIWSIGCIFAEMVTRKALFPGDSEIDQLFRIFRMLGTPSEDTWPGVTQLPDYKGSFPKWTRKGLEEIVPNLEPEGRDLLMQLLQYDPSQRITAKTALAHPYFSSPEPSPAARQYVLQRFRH
T3 sequence (P07949 29-1114 V804M): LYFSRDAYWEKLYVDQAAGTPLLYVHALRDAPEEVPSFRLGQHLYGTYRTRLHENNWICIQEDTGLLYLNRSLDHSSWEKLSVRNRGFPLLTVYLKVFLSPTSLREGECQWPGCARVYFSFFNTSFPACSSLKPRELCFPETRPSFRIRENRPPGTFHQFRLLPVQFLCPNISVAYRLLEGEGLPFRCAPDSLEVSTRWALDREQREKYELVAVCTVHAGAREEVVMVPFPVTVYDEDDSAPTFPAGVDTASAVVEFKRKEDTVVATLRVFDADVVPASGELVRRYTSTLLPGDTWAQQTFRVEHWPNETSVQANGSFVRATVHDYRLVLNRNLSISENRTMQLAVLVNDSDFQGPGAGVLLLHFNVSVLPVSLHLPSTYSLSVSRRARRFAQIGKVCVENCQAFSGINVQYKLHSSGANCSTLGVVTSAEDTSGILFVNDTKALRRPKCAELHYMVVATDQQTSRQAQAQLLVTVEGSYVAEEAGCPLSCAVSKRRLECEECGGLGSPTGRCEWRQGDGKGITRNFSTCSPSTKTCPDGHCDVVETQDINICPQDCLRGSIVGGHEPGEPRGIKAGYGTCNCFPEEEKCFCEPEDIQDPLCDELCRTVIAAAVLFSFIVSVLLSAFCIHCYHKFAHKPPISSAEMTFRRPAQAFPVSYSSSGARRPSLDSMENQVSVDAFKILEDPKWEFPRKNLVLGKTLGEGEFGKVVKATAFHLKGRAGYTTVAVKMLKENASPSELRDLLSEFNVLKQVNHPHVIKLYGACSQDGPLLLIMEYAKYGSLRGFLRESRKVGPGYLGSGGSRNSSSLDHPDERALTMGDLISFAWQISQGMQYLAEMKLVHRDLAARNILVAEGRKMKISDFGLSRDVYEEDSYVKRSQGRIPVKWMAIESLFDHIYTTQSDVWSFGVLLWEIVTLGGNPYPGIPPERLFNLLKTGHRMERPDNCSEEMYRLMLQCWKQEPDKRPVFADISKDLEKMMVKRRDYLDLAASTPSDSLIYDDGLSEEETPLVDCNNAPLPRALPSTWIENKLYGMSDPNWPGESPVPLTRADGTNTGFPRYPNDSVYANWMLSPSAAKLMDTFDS
T19 sequence (P10721 26-976 V559D/T670I): as the sequence (P10721 26-976 D816V) above, with V534D, T645I, V791D counted along it
T5 sequence (P07949 29-1114 V804L): as the sequence (P07949 29-1114 V804M) above, with M776L counted along it
T17 sequence (P10721 26-976): as the sequence (P10721 26-976 D816V) above, with V791D counted along it

COc1ccc2nc(-c3n[nH]c4ccc(C(=O)N[C@H]5CC[C@H](N)C5)cc34)[nH]c2c1 [Example 32, N-((1S,3S)-3-aminocyclopentyl)-3-(6-methoxy-1H-benzo[d]imidazol-2-yl)-1H-indazole-5-carboxamide]
< 10%: all assays above
